In brackets after ≈: the same amount, converted by molar mass.
Key:
[1] = intravenous injection; cited from earlier work
factor H = factor H (Homo sapiens, UniProt P08603); assay: Cofactor activity of factor H: C3b cleavage with factor I; format: biochemical; conditions: 24 hr at 37° C.
Protocol: FIG. 10 illustrates the effect of AM on factor H activity. C3b (104 kDa α′ chain and 71 kDa β chain) was incubated 24 hr at 37° C. with factor H, factor I, and various peptides. Cleavage of the C3b α′ chain produced three bands with molecular weights 68 kD, 43 kD, and 42 kD.
To measure the cofactor activity of factor H, C3b (28 pmols) was incubated with factor I (0.16 pmols) and factor H (0.16 pmols) in the presence or absence of AM and related peptides for 24 hr at 37° C. in a final volume of 50 μl of PBS. Samples were fractionated by SDS-PAGE using 4-12% Tris-Bis gels (Novex) under reducing conditions, and stained with Coomassie Blue. C3b and factor I were purchased from Advanced Research Technologies (San Diego, Calif.). FIGS. 10A and 10B.

pancreatic islets = assay: Insulin secretion and cAMP in isolated pancreatic islets; format: cell-based, rat; conditions: islets with AM and/or factor H
Source text: A representative experiment is shown. Values for each treatment represent the mean and standard deviation of three independent wells. […] All values were statistically different (p<0.05) from the negative controls (first bar).
Pancreatic islets were isolated from 12 rats as previously described (A. Martínez et al., 2000, Endocrinology 141:406-411). Briefly, the heart of each rat was perfused with Hank's balanced salt solution (Sigma) to remove blood from pancreatic vessels. A small canula was inserted into the common biliary duct while the coledoco was sealed. Twenty to twenty-five milliliters of 0.4 mg/ml collagenase XI (Sigma) in Hank's solution was pumped through the canula until the pancreas was fully inflated. The pancreas was removed and incubated at 37° C. for 20 min. Following this, 20 ml of ice-cold Hank's solution was added and the pancreas dissociated by vigorous vortexing. After several washes, the islets were collected and distributed into 24 well plates using a dissecting microscope, with approximately 70 islets per well.
Freshly isolated islets were incubated in RPMI-1640 (Life Technologies) containing 5.6 mM glucose for 45 min at 37° C. […] Insulin and cAMP were measured by radioimmunoassay with commercial kits (Amersham, Arlington Heights, Ill.), according to the manufacturer's directions. […]

AM-binding protein = assay: Competitive displacement of 125I-AM on radioligand blot strips; conditions: increasing concentrations, 10^−10 to 10^−6 M
Protocol: Further detection and characterization of AM-BPs were performed using radioligand blotting procedures similar to those described for IGF binding proteins in plasma (P. Hossenlopp et al., 1986, Anal. Biochem. 154:138-146). Briefly, plasma or serum from the ten species was diluted 1:5 with water and further mixed 1:2 with SDS Tris-glycineglycerol loading buffer and incubated for 10 min at 70° C. Plasma or serum volumes equivalent to 1.5 μl were loaded onto 10% acrylamide gels under non-reducing conditions. Proteins were separated at 115 v for 0.5 hr and transferred to 0.2 μm nitrocellulose using a semi-moist transfer (Bio-Rad Hercules, Calif.) at 18 v for 42 min. Molecular weight markers (29 kD, 43 kD, 66 kD, 78 kD, and 116 kD) were added to complementary lanes on each gel to assess the relative sizes of the resolved proteins.
Nitrocellulose blots were incubated for 15 min with 1.5% NP-40 (Sigma, St. Louis, Mo.). Nonspecific binding was further blocked with a 4 hr incubation of the nitrocellulose in phosphate buffered saline containing either 1% BSA (RIA Grade, SIGMA, St. Louis, Mo.) or 1% AHC. Incubations with radiolabeled recombinant human ^125I-AM were performed overnight at room temperature with agitation, with 80,000 CPM ^125I-hAM per 5 ml protein blocking matrix. […]

[2] = test system: E. coli cells (ATCC 35218); format: cell-based
Protocol: FIG. 9 illustrates the effect of factor H on AM activity. […] Values represent mean and standard deviation of four independent determinations. […] Results are expressed in inhibition units (10 units correspond to 1 mm of diameter in the inhibition halo). MIC values were estimated by performing a linear regression and determining the x-intercepts. […] Values represent mean and standard deviation of the mean of eight determinations.
Antimicrobial activity was measured using E. coli cells (ATCC 35218, Gaithersburg, Md.) and a radial diffusion assay as previously described (R. I. Lehrer et al., 1991, J. Immunol. Methods 137:167-173). Briefly, bacteria were incorporated into a thin underlay gel that contained 1% agarose, 2 mM HEPES pH 7.2, and 0.3 mg/ml of trypticase soy broth powder. After polymerization of the gel, small wells (10 μl capacity) were carved in the agar. Test substances were added and allowed to diffuse for 3 hr at 37° C. […] The diameters of the inhibition halos were measured to the nearest 0.1 mm and, after subtracting the diameter of the well, were expressed on inhibition units (10 units=1 mm). […]
For statistical calculations, MIC values were analyzed by the Student's t test, cAMP values were analyzed with a one-way analysis of variance (ANOVA) and the Tukey's test, and P<0.05 was considered significant.

insulin secretion = conditions: cited from earlier work

Chain of factor H (P08603 19-1231): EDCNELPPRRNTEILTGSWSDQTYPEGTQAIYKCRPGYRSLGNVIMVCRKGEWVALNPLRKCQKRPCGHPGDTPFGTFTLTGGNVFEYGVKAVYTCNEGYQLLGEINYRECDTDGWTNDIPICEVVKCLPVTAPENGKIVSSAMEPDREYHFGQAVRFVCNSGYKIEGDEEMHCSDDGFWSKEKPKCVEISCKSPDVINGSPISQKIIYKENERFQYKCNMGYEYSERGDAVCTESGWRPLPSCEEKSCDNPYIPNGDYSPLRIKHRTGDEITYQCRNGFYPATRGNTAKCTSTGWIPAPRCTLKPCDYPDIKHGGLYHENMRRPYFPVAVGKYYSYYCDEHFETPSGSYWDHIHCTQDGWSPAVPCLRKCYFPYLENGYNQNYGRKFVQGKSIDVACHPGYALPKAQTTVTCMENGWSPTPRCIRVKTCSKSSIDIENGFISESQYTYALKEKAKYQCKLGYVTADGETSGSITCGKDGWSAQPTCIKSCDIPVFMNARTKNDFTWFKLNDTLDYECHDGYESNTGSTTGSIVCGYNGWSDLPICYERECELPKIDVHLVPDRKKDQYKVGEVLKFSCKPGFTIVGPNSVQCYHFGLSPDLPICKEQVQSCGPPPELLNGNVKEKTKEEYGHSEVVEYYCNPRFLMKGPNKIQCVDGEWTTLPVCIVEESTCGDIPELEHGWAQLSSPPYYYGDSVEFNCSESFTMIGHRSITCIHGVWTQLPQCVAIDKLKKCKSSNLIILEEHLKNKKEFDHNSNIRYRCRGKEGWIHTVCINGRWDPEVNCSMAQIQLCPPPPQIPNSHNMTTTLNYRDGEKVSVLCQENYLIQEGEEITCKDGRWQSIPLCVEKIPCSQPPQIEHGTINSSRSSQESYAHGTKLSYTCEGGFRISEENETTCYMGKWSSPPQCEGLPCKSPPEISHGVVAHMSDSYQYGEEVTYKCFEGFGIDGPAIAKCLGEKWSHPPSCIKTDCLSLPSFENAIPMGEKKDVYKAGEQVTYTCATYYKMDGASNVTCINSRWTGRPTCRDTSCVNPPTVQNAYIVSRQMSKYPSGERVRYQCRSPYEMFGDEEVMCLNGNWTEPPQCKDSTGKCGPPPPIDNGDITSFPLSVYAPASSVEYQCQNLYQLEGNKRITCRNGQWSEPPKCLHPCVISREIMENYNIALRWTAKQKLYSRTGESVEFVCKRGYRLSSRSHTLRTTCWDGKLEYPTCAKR

Effect on fH/fI-mediated cleavage of C3b (factor H): enhances fH/fI-mediated cleavage of C3b
Displacement of 125I-AM from AMBPs (AM-binding protein): linear competitive displacement
MIC value [2]: 18.4 ± 1.3 mg/L (≈ 3.05 µM)
Structure (SMILES): CC[C@H](C)[C@H](NC(=O)[C@H](CCC(N)=O)NC(=O)[C@H](Cc1c[nH]cn1)NC(=O)[C@H](C)NC(=O)[C@H](CC(C)C)NC(=O)[C@H](CCCCN)NC(=O)[C@H](CCC(N)=O)NC(=O)[C@@H](NC(=O)[C@@H](NC(=O)[C@@H]1CSSC[C@H](NC(=O)CNC(=O)[C@H](Cc2ccccc2)NC(=O)[C@H](CO)NC(=O)[C@H](CCCNC(=N)N)NC(=O)[C@H](CC(C)C)NC(=O)CNC(=O)[C@H](CCC(N)=O)NC(=O)[C@H](Cc2ccccc2)NC(=O)[C@H](CC(N)=O)NC(=O)[C@H](CC(N)=O)NC(=O)[C@H](CCSC)NC(=O)[C@H](CO)NC(=O)[C@H](CCC(N)=O)NC(=O)[C@H](CCCNC(=N)N)NC(=O)[C@@H](N)Cc2ccc(O)cc2)C(=O)N[C@@H](CCCNC(=N)N)C(=O)N[C@@H](Cc2ccccc2)C(=O)NCC(=O)N[C@@H]([C@@H](C)O)C(=O)N1)[C@@H](C)O)C(C)C)C(=O)N[C@@H](Cc1ccc(O)cc1)C(=O)N[C@@H](CCC(N)=O)C(=O)N[C@@H](Cc1ccccc1)C(=O)N[C@H](C(=O)N[C@@H](CC(=O)O)C(=O)N[C@@H](CCCCN)C(=O)N[C@@H](CC(=O)O)C(=O)N[C@@H](CCCCN)C(=O)N[C@@H](CC(=O)O)C(=O)N[C@@H](CC(N)=O)C(=O)N[C@H](C(=O)N[C@@H](C)C(=O)N1CCC[C@H]1C(=O)N[C@@H](CCCNC(=N)N)C(=O)N[C@@H](CO)C(=O)N[C@@H](CCCCN)C(=O)N[C@H](C(=O)N[C@@H](CO)C(=O)N1CCC[C@H]1C(=O)N[C@@H](CCC(N)=O)C(=O)NCC(=O)N[C@@H](Cc1ccc(O)cc1)C(N)=O)[C@@H](C)CC)C(C)C)[C@@H](C)O [AM, Adrenomedullin]
Insulin and glucose in the bloodstream [1]: reduces the levels of insulin in the bloodstream with a concomitant increase in circulating glucose
cAMP in islets (pancreatic islets): concomitant elevations on cAMP
Insulin secretion (pancreatic islets; 20.6 mM glucose, 45 min): dose-dependent decreases in insulin secretion
Insulin secretion (insulin secretion): inhibits insulin secretion in a dose-dependent manner
